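Test compounds were applied to cells in 96-well plates for 48 hours at 5 doses. GI50 marks 50% less growth.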 Calls of active or inactive are those of the source. Cut-off read from the data, not from the text of the source: active = GI50 up to about 1.1 µM and inactive = higher.
Key:
Test in all cases: NCI-60 cell line screen, 48 h
786-0 = system: 786-0
A549 = system: A549
ACHN = system: ACHN
BT-549 = system: BT-549
CAKI-1 = system: CAKI-1
COLO 205 = system: COLO 205
DU-145 = system: DU-145
EKVX = system: EKVX
HCC 2998 = system: HCC 2998
HCT-15 = system: HCT-15
HOP-62 = system: HOP-62
HOP-92 = system: HOP-92
HT-29 = system: HT-29
Hs-578T = system: Hs-578T
IGROV-1 = system: IGROV-1
K562 = system: K562
KM12 = system: KM12
M14 = system: M14
MCF7 = system: MCF7
MDA-MB-231 = system: MDA-MB-231
MDA-MB-435 = system: MDA-MB-435
MDA-N = system: MDA-N
MOLT-4 = system: MOLT-4
Malme-3M = system: Malme-3M
NCI-H226 = system: NCI-H226
NCI-H23 = system: NCI-H23
NCI-H460 = system: NCI-H460
NCI-H522 = system: NCI-H522
NCI/ADR-RES = system: NCI/ADR-RES
OVCAR-3 = system: OVCAR-3
OVCAR-5 = system: OVCAR-5
OVCAR-8 = system: OVCAR-8
PC-3 = system: PC-3
RPMI-8226 = system: RPMI-8226
RXF 393 = system: RXF 393
SF-268 = system: SF-268
SF-295 = system: SF-295
SF-539 = system: SF-539
SK-MEL-28 = system: SK-MEL-28
SK-MEL-2 = system: SK-MEL-2
SK-MEL-5 = system: SK-MEL-5
SK-OV-3 = system: SK-OV-3
SN12C = system: SN12C
SNB-19 = system: SNB-19
SNB-75 = system: SNB-75
SR = system: SR
SW-620 = system: SW-620
T47D = system: T47D
TK-10 = system: TK-10
U-251 = system: U-251
UACC-257 = system: UACC-257
UACC-62 = system: UACC-62
UO-31 = system: UO-31
CCRF-CEM = system: CCRF-CEM
HCT-116 = system: HCT-116
HL-60 = system: HL-60
LOX IMVI = system: LOX IMVI
OVCAR-4 = system: OVCAR-4

## CC(=O)OC(C(=O)NNC(=O)OC(C)(C)C)c1ccccc1 (centres undefined)
786-0
  GI50: > 100 µM (inactive)
A549
  GI50: > 100 µM (inactive)
ACHN
  GI50: > 100 µM (inactive)
BT-549
  GI50: > 100 µM (inactive)
CAKI-1
  GI50: > 100 µM (inactive)
COLO 205
  GI50: > 100 µM (inactive)
DU-145
  GI50: > 100 µM (inactive)
EKVX
  GI50: > 100 µM (inactive)
HCC 2998
  GI50: > 100 µM (inactive)
HCT-15
  GI50: > 100 µM
HOP-62
  GI50: > 100 µM (inactive)
HOP-92
  GI50: > 100 µM (inactive)
HT-29
  GI50: > 100 µM (inactive)
Hs-578T
  GI50: > 100 µM (inactive)
IGROV-1
  GI50: > 100 µM (inactive)
K562
  GI50: > 100 µM (inactive)
KM12
  GI50: > 100 µM (inactive)
M14
  GI50: > 100 µM (inactive)
MCF7
  GI50: > 100 µM (inactive)
MDA-MB-231
  GI50: > 100 µM (inactive)
MDA-MB-435
  GI50: > 100 µM (inactive)
MDA-N
  GI50: > 100 µM (inactive)
MOLT-4
  GI50: > 100 µM (inactive)
Malme-3M
  GI50: > 100 µM (inactive)
NCI-H226
  GI50: > 100 µM (inactive)
NCI-H23
  GI50: > 100 µM (inactive)
NCI-H460
  GI50: > 100 µM (inactive)
NCI-H522
  GI50: > 100 µM (inactive)
NCI/ADR-RES
  GI50: > 100 µM (inactive)
OVCAR-3
  GI50: > 100 µM (inactive)
OVCAR-5
  GI50: > 100 µM (inactive)
OVCAR-8
  GI50: > 100 µM (inactive)
PC-3
  GI50: > 100 µM (inactive)
RPMI-8226
  GI50: > 100 µM (inactive)
RXF 393
  GI50: > 100 µM (inactive)
SF-268
  GI50: > 100 µM (inactive)
SF-295
  GI50: > 100 µM (inactive)
SF-539
  GI50: > 100 µM (inactive)
SK-MEL-28
  GI50: > 100 µM (inactive)
SK-MEL-2
  GI50: > 100 µM (inactive)
SK-MEL-5
  GI50: > 100 µM (inactive)
SK-OV-3
  GI50: > 100 µM (inactive)
SN12C
  GI50: > 100 µM (inactive)
SNB-19
  GI50: > 100 µM (inactive)
SNB-75
  GI50: > 100 µM (inactive)
SR
  GI50: > 100 µM (inactive)
SW-620
  GI50: > 100 µM (inactive)
T47D
  GI50: > 100 µM (inactive)
TK-10
  GI50: > 100 µM (inactive)
U-251
  GI50: > 100 µM (inactive)
UACC-257
  GI50: > 10 µM (inactive)
UACC-62
  GI50: > 100 µM (inactive)
UO-31
  GI50: > 100 µM (inactive)

## O=C(Nc1ccccc1)OCCN=C1c2ccccc2CCc2ccccc21
786-0
  GI50: 32.6 µM (inactive)
A549
  GI50: 17.5 µM (inactive)
ACHN
  GI50: 15.4 µM (inactive)
BT-549
  GI50: 21 µM (inactive)
CAKI-1
  GI50: 18.5 µM (inactive)
CCRF-CEM
  GI50: 20.6 µM (inactive)
COLO 205
  GI50: 17.6 µM (inactive)
DU-145
  GI50: 24.5 µM (inactive)
EKVX
  GI50: 33.2 µM (inactive)
HCC 2998
  GI50: 27.5 µM (inactive)
HCT-116
  GI50: 14.6 µM (inactive)
HCT-15
  GI50: 15.7 µM
HL-60
  GI50: 13.8 µM (inactive)
HOP-62
  GI50: 19.7 µM (inactive)
HT-29
  GI50: 18.5 µM (inactive)
Hs-578T
  GI50: 18.5 µM (inactive)
IGROV-1
  GI50: 19.1 µM (inactive)
K562
  GI50: 15.1 µM (inactive)
KM12
  GI50: 14.3 µM (inactive)
LOX IMVI
  GI50: 20 µM (inactive)
M14
  GI50: 21.8 µM (inactive)
MCF7
  GI50: 24 µM (inactive)
MDA-MB-231
  GI50: 15.1 µM (inactive)
MDA-MB-435
  GI50: 22.6 µM (inactive)
MDA-N
  GI50: 19.6 µM (inactive)
MOLT-4
  GI50: 9.73 µM (inactive)
Malme-3M
  GI50: 22.5 µM (inactive)
NCI-H226
  GI50: 29.4 µM (inactive)
NCI-H23
  GI50: 55.2 µM (inactive)
NCI-H460
  GI50: 21.4 µM (inactive)
NCI/ADR-RES
  GI50: 19.7 µM (inactive)
OVCAR-3
  GI50: 13.6 µM (inactive)
OVCAR-4
  GI50: 21.9 µM (inactive)
OVCAR-5
  GI50: 28.7 µM (inactive)
OVCAR-8
  GI50: 31.5 µM (inactive)
PC-3
  GI50: 19.6 µM (inactive)
RPMI-8226
  GI50: 12.8 µM (inactive)
RXF 393
  GI50: 19.4 µM (inactive)
SF-268
  GI50: 25.6 µM (inactive)
SF-295
  GI50: 15.5 µM (inactive)
SF-539
  GI50: 18.2 µM (inactive)
SK-MEL-28
  GI50: 15.4 µM (inactive)
SK-MEL-2
  GI50: 15 µM (inactive)
SK-MEL-5
  GI50: 13.4 µM (inactive)
SK-OV-3
  GI50: 23.6 µM (inactive)
SN12C
  GI50: 17.3 µM (inactive)
SNB-19
  GI50: 14.8 µM (inactive)
SNB-75
  GI50: 11.9 µM (inactive)
SR
  GI50: 12.2 µM (inactive)
SW-620
  GI50: 35 µM (inactive)
T47D
  GI50: 15.3 µM (inactive)
TK-10
  GI50: 31.8 µM (inactive)
U-251
  GI50: 17.3 µM (inactive)
UACC-257
  GI50: 23.1 µM (inactive)
UACC-62
  GI50: 13.1 µM (inactive)
UO-31
  GI50: 17.3 µM (inactive)

From ChEMBL document CHEMBL1201862, “PubChem BioAssay data set” (2004)
